Values joined by “and” are separate entries in the source; they are usually repeats but may differ in a detail not shown here. Equal values may be shown once. Inconclusive results and toxic doses are left out. No stated cut-off is given here; in the data, active means T/C of 150% or more; inactive means T/C below 125%.
System: L1210 leukemia ip in BDF1 mice, survival T/C
Test: NCI In Vivo Anticancer Drug Screen. Data for tumor model L1210 Leukemia (intraperitoneal) in B6D2F1 (BDF1) mice
Conditions: endpoint: mean survival time, higher = longer survival
Procedure, shortened: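 Tumor was transplanted into mice, which were then dosed with test compound or vehicle alone. Survival was recorded for each group, and the treated figure was expressed relative to the control figure.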

[1] = dose: 75.0 mg/kg/injection, schedule: Q01DX001 (ip), vehicle: saline
[2] = dose: 100.0 mg/kg/injection, schedule: Q01DX009 (ip), vehicle: Klucel (hydroxypropylcellulose) (HPC)
[3] = dose: 200.0 mg/kg/injection, schedule: Q01DX009 (ip), vehicle: Klucel (hydroxypropylcellulose) (HPC)
[4] = dose: 100.0 mg/kg/injection, schedule: Q01DX009 (ip), vehicle: saline with Tween-80
[5] = dose: 200.0 mg/kg/injection, schedule: Q01DX009 (ip), vehicle: saline with Tween-80
[6] = dose: 400.0 mg/kg/injection, schedule: Q01DX009 (ip), vehicle: saline with Tween-80
[7] = dose: 400.0 mg/kg/injection, schedule: Q01DX009 (ip), vehicle: Klucel (hydroxypropylcellulose) (HPC)
[8] = dose: 100.0 mg/kg/injection, schedule: Q04DX003 (ip), vehicle: saline with Tween-80
[9] = dose: 200.0 mg/kg/injection, schedule: Q04DX003 (ip), vehicle: saline with Tween-80
[10] = dose: 400.0 mg/kg/injection, schedule: Q04DX003 (ip), vehicle: saline with Tween-80
[11] = dose: 100.0 mg/kg/injection, schedule: Q04DX003 (ip), vehicle: Klucel (hydroxypropylcellulose) (HPC)
[12] = dose: 200.0 mg/kg/injection, schedule: Q04DX003 (ip), vehicle: Klucel (hydroxypropylcellulose) (HPC)
[13] = dose: 400.0 mg/kg/injection, schedule: Q04DX003 (ip), vehicle: Klucel (hydroxypropylcellulose) (HPC)
[14] = dose: 100.0 mg/kg/injection, schedule: Q01DX009 (ip), vehicle: saline
[15] = dose: 200.0 mg/kg/injection, schedule: Q01DX009 (ip), vehicle: saline
[16] = dose: 100.0 mg/kg/injection, schedule: Q01DX001 (ip), vehicle: saline
[17] = dose: 200.0 mg/kg/injection, schedule: Q01DX001 (ip), vehicle: saline

Measured: T/C

CCN(CC)CCCC(C)Nc1cc(N)nc2nc(-c3cc(OC)c(OC)c(OC)c3)cnc12 (stereo not drawn) (tested in a mixture with another compound)
inactive: [1] 87 % of control

O=C(CSCCN1CCCCC1)N1c2ccccc2Sc2ccccc21
inactive: dose: 10.0 mg/kg/injection, schedule: Q01DX009 (ip), vehicle: saline 102 % of control | dose: 20.0 mg/kg/injection, schedule: Q01DX009 (ip), vehicle: saline 100 % of control | dose: 40.0 mg/kg/injection, schedule: Q01DX009 (ip), vehicle: saline 96 % of control

O=C(O)/C(Br)=C\c1ccc(Br)o1
inactive: dose: 50.0 mg/kg/injection, schedule: Q01DX009 (ip), vehicle: Klucel (hydroxypropylcellulose) (HPC) 97 % of control | [2] 94 % of control | dose: 100.0 mg/kg/injection, schedule: Q04DX002 (ip), vehicle: Klucel (hydroxypropylcellulose) (HPC) 97 % of control | [3] 97 % of control | dose: 200.0 mg/kg/injection, schedule: Q04DX002 (ip), vehicle: Klucel (hydroxypropylcellulose) (HPC) 90 % of control

CC(=O)OC(C(=O)c1ccccc1)C(=O)c1ccccc1
inactive: dose: 100.0 mg/kg/injection, schedule: Q01DX001 (ip), vehicle: Klucel (hydroxypropylcellulose) (HPC) 88 % of control | dose: 200.0 mg/kg/injection, schedule: Q01DX001 (ip), vehicle: Klucel (hydroxypropylcellulose) (HPC) 108 % of control | dose: 400.0 mg/kg/injection, schedule: Q01DX001 (ip), vehicle: Klucel (hydroxypropylcellulose) (HPC) 88 % of control

COc1ccc(CC(Cc2ccc(OC)c(OC)c2)NC=O)cc1OC
inactive: [4] 95 % of control | [5] 97 % of control | [6] 100 % of control

OCCNCc1ccc2ccccc2n1
inactive: dose: 75.0 mg/kg/injection, schedule: Q04DX003 (ip), vehicle: saline 96 % of control | dose: 150.0 mg/kg/injection, schedule: Q04DX003 (ip), vehicle: saline 100 % of control | dose: 300.0 mg/kg/injection, schedule: Q04DX003 (ip), vehicle: saline 96 % of control

COc1ccccc1NS(=O)(=O)c1ccc(Cl)cc1
inactive: [2] 103 % of control | [3] 112 % of control | [7] 103 % of control

CCN(CC)c1ccc2c(c1)C(O)c1ccccc1-2 (stereo not drawn)
inactive: [8] 94 % of control and 108 % of control | [9] 104 % of control and 105 % of control | [10] 102 % of control and 108 % of control

COc1ccc(NC(=S)NNC(=S)NNc2ccccc2)cc1
inactive: [2] 90 % of control | [11] 93 % of control | [3] 89 % of control | [12] 92 % of control | [13] 86 % of control

O=C(O)CC(NCc1ccccc1)C(=O)O (stereo not drawn)
inactive: [4] 93 % of control | [5] 91 % of control | [6] 93 % of control

CCOC(=O)Cn1c(=O)c2ccccc2c2ccccc21
inactive: [11] 97 % of control | [12] 104 % of control | [13] 101 % of control

C[C@]12CC[C@H]3[C@@H](CCC4=CC(=O)CC[C@@]43C(=O)F)[C@@H]1CC[C@@H]2O
inactive: dose: 100.0 mg/kg/injection, schedule: Q01DX001 (sc), vehicle: steriod suspending solution 97 % of control | dose: 200.0 mg/kg/injection, schedule: Q01DX001 (sc), vehicle: steriod suspending solution 100 % of control | dose: 400.0 mg/kg/injection, schedule: Q01DX001 (sc), vehicle: steriod suspending solution 97 % of control

CCCCCCCCCCCCCCCCN(C(=S)c1ccccc1)c1ccccc1
inactive: [2] 89 % of control | [11] 104 % of control | [3] 90 % of control | [12] 94 % of control | [7] 87 % of control | [13] 96 % of control

c1ccc2cc(B(c3cccc4ccccc34)c3cccc4ccccc34)ccc2c1
inactive: dose: 12.5 mg/kg/injection, schedule: Q04DX002 (ip), vehicle: saline with Tween-80 102 % of control | dose: 25.0 mg/kg/injection, schedule: Q04DX002 (ip), vehicle: saline with Tween-80 94 % of control | dose: 50.0 mg/kg/injection, schedule: Q04DX002 (ip), vehicle: saline with Tween-80 105 % of control

C=C1C(=O)OCC2C(C(=O)O)=CC3C(C)C(C)=CC123 (stereo not drawn)
inactive: dose: 20.0 mg/kg/injection, schedule: Q01DX009 (ip), vehicle: saline with Tween-80 108 % of control | dose: 40.0 mg/kg/injection, schedule: Q01DX009 (ip), vehicle: saline with Tween-80 111 % of control

CC(C)(C)N(Cc1ccccc1)C(=O)Nc1ccccc1
inactive: [2] 97 % of control | [3] 110 % of control | [7] 103 % of control

ClC1C(Cl)C(Cl)C(Cl)C(Cl)C1Cl (stereo not drawn)
inactive: dose: 50.0 mg/kg/injection, schedule: Q01DX009 (ip), vehicle: saline 103 % of control | [14] 103 % of control | [15] 108 % of control

CC12C(=O)C(C(c3ccccc3)=C1c1ccccc1)C1C(=O)OC(=O)C12 (stereo not drawn)
inactive: [1] 95 % of control | dose: 150.0 mg/kg/injection, schedule: Q01DX001 (ip), vehicle: saline 86 % of control | dose: 300.0 mg/kg/injection, schedule: Q01DX001 (ip), vehicle: saline 95 % of control

NC(=O)CCCCc1ccccc1
inactive: dose: 50.0 mg/kg/injection, schedule: Q01DX001 (ip), vehicle: saline with Tween-80 93 % of control | dose: 100.0 mg/kg/injection, schedule: Q01DX001 (ip), vehicle: saline with Tween-80 98 % of control | dose: 200.0 mg/kg/injection, schedule: Q01DX001 (ip), vehicle: saline with Tween-80 90 % of control

CSC(N)=NC1CCCCC1
inactive: dose: 6.25 mg/kg/injection, schedule: Q01DX009 (ip), vehicle: saline 103 % of control | dose: 12.5 mg/kg/injection, schedule: Q01DX009 (ip), vehicle: saline 107 % of control | dose: 12.5 mg/kg/injection, schedule: Q04DX002 (ip), vehicle: saline 109 % of control | dose: 25.0 mg/kg/injection, schedule: Q01DX009 (ip), vehicle: saline 100 % of control | dose: 25.0 mg/kg/injection, schedule: Q04DX002 (ip), vehicle: saline 105 % of control

CC(CCC(=O)O)(c1cc(Br)c(O)c(Br)c1)c1cc(Br)c(O)c(Br)c1
inactive: [14] 93 % of control | dose: 100.0 mg/kg/injection, schedule: Q04DX003 (ip), vehicle: other 102 % of control | [15] 95 % of control | dose: 200.0 mg/kg/injection, schedule: Q04DX003 (ip), vehicle: other 102 % of control | dose: 400.0 mg/kg/injection, schedule: Q01DX009 (ip), vehicle: saline 87 % of control | dose: 400.0 mg/kg/injection, schedule: Q04DX003 (ip), vehicle: other 109 % of control

OC/C=C/Cl
inactive: dose: 25.0 mg/kg/injection, schedule: Q01DX001 (ip), vehicle: acetone 106 % of control | dose: 50.0 mg/kg/injection, schedule: Q01DX001 (ip), vehicle: acetone 97 % of control | dose: 100.0 mg/kg/injection, schedule: Q01DX001 (ip), vehicle: acetone 98 % of control

Nc1nc(-c2ccccc2)cc(-c2ccccc2)c1-c1ccccc1
inactive: dose: 50.0 mg/kg/injection, schedule: Q01DX009 (ip), vehicle: saline with Tween-80 108 % of control | [4] 112 % of control | [5] 104 % of control

CC1CCCCN1CC(Cl)(Cl)Cl (stereo not drawn)
inactive: [16] 89 % of control | [17] 94 % of control

CSCCNC(=O)CS(=O)(=O)c1ccc(N)cc1
inactive: [8] 97 % of control | [9] 97 % of control | [10] 97 % of control

CC(C(=O)O)C(C)(O)C(C)(C)C (stereo not drawn)
inactive: dose: 100.0 mg/kg/injection, schedule: Q04DX002 (ip), vehicle: saline 104 % of control | dose: 200.0 mg/kg/injection, schedule: Q04DX002 (ip), vehicle: saline 97 % of control | dose: 400.0 mg/kg/injection, schedule: Q04DX002 (ip), vehicle: saline 108 % of control

C=CCCCCCCCCC(=O)OC
inactive: [16] 100 % of control | [17] 96 % of control | dose: 400.0 mg/kg/injection, schedule: Q01DX001 (ip), vehicle: saline 100 % of control

Cn1c(C(Cl)Cl)nc2ccccc2c1=O
inactive: dose: 50.0 mg/kg/injection, schedule: Q01DX001 (ip), vehicle: carboxymethylcellulose (CMC) 106 % of control | dose: 100.0 mg/kg/injection, schedule: Q01DX001 (ip), vehicle: carboxymethylcellulose (CMC) 106 % of control | dose: 200.0 mg/kg/injection, schedule: Q01DX001 (ip), vehicle: carboxymethylcellulose (CMC) 106 % of control | dose: 400.0 mg/kg/injection, schedule: Q01DX001 (ip), vehicle: carboxymethylcellulose (CMC) 97 % of control

From PubChem BioAssay AID248 (DTP/NCI, 2004)
